# Assay results published in ChEMBL document CHEMBL5523703, “Modulators for palmitoylation of proteins and small molecules” (Eur J Med Chem, 2024).
# System: not listed separately
# Experiment: Inhibition of Wnt/beta-catenin signalling in HEK293 cells assessed as reduction in luciferase activity incubated for 24 hrs by TOPFlash luciferase reporter assay
# Format: cell-based
# Details: Homo sapiens, HEK293, 24 h
row,Compound,IC50
1,CCc1cc(=O)oc2c(C)c(OCC(=O)Nc3ccc(N4CCCCC4)cc3)ccc12,710 nM
2,O=S(=O)(c1ccc2oc(-c3cccnc3)nc2c1)c1ccc2oc(-c3cccnc3)nc2c1,16 nM
3,Cc1ccc2nc(NC(=O)CSc3nc4c(c(=O)n3-c3ccccc3)SCC4)sc2c1,28 nM
4,CC(C)Cc1c(C#N)c(N)nc(SCC(=O)c2ccc(-c3ccccc3)cc2)c1C#N,10 nM
5,Cc1ccc2nc(NC(=O)CSc3nc4c(c(=O)n3C)SC(C)C4)sc2c1 (stereo unspecified),15 nM
6,COc1ccc(-n2nc(C(=O)NCC(=O)Nc3nc4ccc(OC)cc4s3)c3ccccc3c2=O)cc1,58 nM
7,CCOc1ccc(NC(=O)CSc2nnc(-c3ccncc3)n2-c2ccccc2)cc1,90 nM

# Biological target: Serine palmitoyltransferase 3 (Homo sapiens, UniProt Q9NUV7)
# Sequence (Q9NUV7 whole entry): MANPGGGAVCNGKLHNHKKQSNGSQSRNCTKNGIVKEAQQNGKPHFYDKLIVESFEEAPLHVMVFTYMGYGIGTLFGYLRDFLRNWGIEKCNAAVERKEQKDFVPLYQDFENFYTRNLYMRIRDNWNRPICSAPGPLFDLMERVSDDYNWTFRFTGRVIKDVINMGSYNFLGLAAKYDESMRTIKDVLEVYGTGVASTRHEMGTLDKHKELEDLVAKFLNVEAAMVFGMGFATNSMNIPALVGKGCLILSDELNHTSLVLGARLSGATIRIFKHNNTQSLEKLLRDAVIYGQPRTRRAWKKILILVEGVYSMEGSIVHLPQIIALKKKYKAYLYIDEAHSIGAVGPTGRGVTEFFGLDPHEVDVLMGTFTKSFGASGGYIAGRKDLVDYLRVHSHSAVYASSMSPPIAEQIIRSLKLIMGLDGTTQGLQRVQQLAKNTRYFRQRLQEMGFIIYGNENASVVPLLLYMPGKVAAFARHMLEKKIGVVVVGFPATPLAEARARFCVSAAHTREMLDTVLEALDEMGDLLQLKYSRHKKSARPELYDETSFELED
# Experiment: Inhibition of SPTLC3 (unknown origin)
# Details: not given
row,Compound,IC50
1,COc1ccc(C(=O)N2CC[C@H](NC(=O)c3ccccc3Cl)c3c2cnn3C(C)C)cc1OC,4 nM
2,COc1ccc(C(=O)N2CC[C@H](NC(=O)c3ccccc3OC(F)(F)F)c3c2cnn3CCCCCNC(=O)CCC2=[N+]3C(=Cc4c(C)cc(C)n4[B-]3(F)F)C=C2)cc1OC,0.8 nM

# Biological target: Palmitoyltransferase ZDHHC7 (Homo sapiens, UniProt Q9NXF8)
# Sequence (Q9NXF8 whole entry): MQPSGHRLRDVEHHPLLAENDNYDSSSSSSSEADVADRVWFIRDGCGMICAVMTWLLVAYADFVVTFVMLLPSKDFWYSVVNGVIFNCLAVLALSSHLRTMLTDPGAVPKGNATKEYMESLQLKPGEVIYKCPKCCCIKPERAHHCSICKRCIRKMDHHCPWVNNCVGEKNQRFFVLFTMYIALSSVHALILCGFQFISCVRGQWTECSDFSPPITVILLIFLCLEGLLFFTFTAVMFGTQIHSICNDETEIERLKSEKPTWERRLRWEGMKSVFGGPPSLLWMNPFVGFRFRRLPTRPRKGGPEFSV
# Experiment: Inhibition of ZDHHC7 (unknown origin)
# Details: not given
row,Compound,IC50
1,CCCCCCCCCCCCCCC(Br)C(=O)OC (stereo unspecified),38000 nM

# Biological target: T1, Palmitoyl-protein thioesterase ABHD10, mitochondrial (Homo sapiens, UniProt Q9NUJ1)
# T1 sequence (Q9NUJ1 whole entry): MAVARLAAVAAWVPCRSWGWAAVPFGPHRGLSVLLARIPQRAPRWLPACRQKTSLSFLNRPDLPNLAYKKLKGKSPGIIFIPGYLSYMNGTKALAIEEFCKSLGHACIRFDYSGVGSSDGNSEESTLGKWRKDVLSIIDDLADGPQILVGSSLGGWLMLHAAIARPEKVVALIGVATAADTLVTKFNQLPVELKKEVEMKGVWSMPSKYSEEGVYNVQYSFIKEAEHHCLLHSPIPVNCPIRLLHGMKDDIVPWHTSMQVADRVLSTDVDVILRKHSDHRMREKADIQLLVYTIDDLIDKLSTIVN
# Experiment: Inhibition of ABHD10 (unknown origin)
# Details: not given
row,Compound,IC50
1,COc1ccc([C@@]23Oc4cc(OC)cc(OC)c4[C@]2(O)[C@@H]2OC(=O)[C@@H]2[C@H]3c2ccccc2)cc1,100 nM
2,CC[C@@]1(c2cccc(C)c2)C(=O)N(C(=O)OC)N1C(=O)OC,210 nM
3,CC[C@@]1(c2ccc(C)cc2)C(=O)N(C(=O)OC(C)C)N1C(=O)OC(C)C,30 nM

# System: not listed separately
# Experiment: cells
# Details: Homo sapiens, HEK-293T, 24 h
row,Compound,IC50
1,Cn1c(=O)c2c(ncn2CC(=O)Nc2ccc(-c3ccccc3)nn2)n(C)c1=O [ETC-159],2.9 nM
2,Cc1cc(-c2ncc(CC(=O)Nc3ccc(-c4cnccn4)cn3)cc2C)ccn1 [WNT-974],0.2 nM
3,Cc1c(-c2ccnc(C(F)(F)F)c2)ncn1CC(=O)Nc1ccc(-c2cnccn2)cn1 [ZAMAPORVINT],0.064 nM

# Biological target: T2, Phosphatidylserine lipase ABHD16A (Homo sapiens, UniProt O95870)
# T2 sequence (O95870 whole entry): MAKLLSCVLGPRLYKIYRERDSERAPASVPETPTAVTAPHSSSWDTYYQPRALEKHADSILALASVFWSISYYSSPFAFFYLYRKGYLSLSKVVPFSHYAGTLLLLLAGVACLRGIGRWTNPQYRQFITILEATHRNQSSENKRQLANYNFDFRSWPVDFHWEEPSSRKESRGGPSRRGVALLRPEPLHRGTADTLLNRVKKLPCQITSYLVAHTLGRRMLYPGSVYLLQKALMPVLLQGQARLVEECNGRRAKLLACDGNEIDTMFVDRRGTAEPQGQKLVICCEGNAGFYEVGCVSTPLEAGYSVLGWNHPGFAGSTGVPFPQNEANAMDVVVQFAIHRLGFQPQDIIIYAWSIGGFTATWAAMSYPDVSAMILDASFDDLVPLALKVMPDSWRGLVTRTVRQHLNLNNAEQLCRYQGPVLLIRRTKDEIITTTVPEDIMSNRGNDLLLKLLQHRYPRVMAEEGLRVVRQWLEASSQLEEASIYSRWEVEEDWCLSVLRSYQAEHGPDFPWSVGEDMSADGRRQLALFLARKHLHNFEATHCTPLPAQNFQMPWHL
# Experiment: Inhibition of recombinant human ABHD16A expressed in HEK293T cells incubated for 1 hr by fluorescence based analysis
# Format: cell-based
# Details: not given
row,Compound,IC50
1,NC(=O)CCCC/C=C1\C(=O)OC1CCc1ccccc1 (stereo unspecified),≥ 10000 nM
2,COc1nn(-c2ccc(F)cc2)c(=O)o1,30 nM
3,CCCCCCCCCCCCCC1OC(=O)/C1=C\CCCCC(N)=O (stereo unspecified),200 nM
4,COc1nn(-c2cccc([N+](=O)[O-])c2)c(=O)o1,60 nM

# Biological target: T3, Membrane-bound ghrelin O-acyltransferase MBOAT4 (Homo sapiens, UniProt Q96T53)
# T3 sequence (Q96T53 whole entry): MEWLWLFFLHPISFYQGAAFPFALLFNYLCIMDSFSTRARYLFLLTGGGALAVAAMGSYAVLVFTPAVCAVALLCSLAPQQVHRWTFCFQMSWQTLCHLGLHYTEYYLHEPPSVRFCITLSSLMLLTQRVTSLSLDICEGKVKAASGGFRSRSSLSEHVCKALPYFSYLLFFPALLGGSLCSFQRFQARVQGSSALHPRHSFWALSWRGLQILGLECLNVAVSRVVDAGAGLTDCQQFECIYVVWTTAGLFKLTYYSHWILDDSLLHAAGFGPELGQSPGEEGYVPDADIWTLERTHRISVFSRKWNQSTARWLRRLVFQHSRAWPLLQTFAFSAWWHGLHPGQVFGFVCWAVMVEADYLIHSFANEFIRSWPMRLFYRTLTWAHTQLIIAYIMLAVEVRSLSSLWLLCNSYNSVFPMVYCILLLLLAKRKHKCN
# Experiment: Inhibition of GOAT (unknown origin)
# Details: not given
row,Compound,IC50
1,Cc1nc(N)c(CCC2CCN(C(=O)[C@H](C)NC(=O)c3ccnn3C)CC2)c(Cl)n1,60 nM
2,Cc1nc(N)c2c(CCc3ccc(C(=O)O)cc3)coc2n1,170 nM
3,CCCCCCCC(C)(O)/C=C/[C@H](NC(=O)OCc1ccccc1)C(=O)OC (stereo partly specified),1500 nM

# System: not listed separately
# Experiment: Inhibition of Wnt/beta-catenin signalling in Wnt3a stimulated HEK293 cells assessed as reduction in luciferase activity incubated for 24 hrs by TOPFlash luciferase reporter assay
# Format: cell-based
# Details: Homo sapiens, HEK293, 24 h
row,Compound,IC50
1,C[C@H](C(=O)Nc1ccc(-c2ccsc2)cc1)n1cnc2c1c(=O)n(C)c(=O)n2C,0.5 nM
2,O=C(Cn1cc(I)c(=O)c(I)c1)Nc1ccc(-c2ccccc2)cn1,20 nM

# Organism: Homo sapiens
# Experiment: Inhibition of ZDHHC (unknown origin) at 20 uM relative to control
# Details: not given
row,Compound,inhibition
1,C=CC(=O)N(C)CCCCCCCCCCCCCC,67.3%
2,N#CCC(=O)NCCc1ccc(OC(=O)c2cccc(Oc3ccccc3)c2)cc1,71.3%

# Biological target: Acyl-protein thioesterase 2 (Homo sapiens, UniProt O95372)
# Sequence (O95372 whole entry): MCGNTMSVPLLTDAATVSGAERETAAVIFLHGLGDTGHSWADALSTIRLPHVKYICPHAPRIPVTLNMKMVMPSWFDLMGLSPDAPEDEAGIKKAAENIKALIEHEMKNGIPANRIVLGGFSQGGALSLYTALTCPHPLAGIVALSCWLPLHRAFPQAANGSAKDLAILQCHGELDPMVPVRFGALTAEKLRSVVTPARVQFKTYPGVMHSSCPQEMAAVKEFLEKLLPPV
# Experiment: Inhibition of APT2 (unknown origin)
# Details: not given
row,Compound,IC50
1,C#CCCCN(C)CCCS(=O)(=O)CCCC[C@@H]1C(=O)O[C@H]1CCCCCCCCCC,64.4 nM
2,CCCCCCCCCC[C@@H]1C(=O)O[C@H]1CCc1ccc(OC)c(OC)c1 [PALMOSTATIN B],19.6 nM
3,C#CCCCCCCCC[C@@H]1C(=O)O[C@H]1CCc1ccc(OC)c(OC)c1,23.7 nM
4,C#CCCCCCCCC[C@@H]1OC(=O)[C@H]1CCCCS(=O)(=O)CCCN(C)C,32.4 nM
5,CCCCCCCCCC[C@@H]1OC(=O)[C@H]1CCCCS(=O)(=O)CCCN(C)C,36.7 nM

# Biological target: T4, Carnitine O-palmitoyltransferase 1, muscle isoform (Homo sapiens, UniProt Q92523)
# T4 sequence (Q92523 whole entry): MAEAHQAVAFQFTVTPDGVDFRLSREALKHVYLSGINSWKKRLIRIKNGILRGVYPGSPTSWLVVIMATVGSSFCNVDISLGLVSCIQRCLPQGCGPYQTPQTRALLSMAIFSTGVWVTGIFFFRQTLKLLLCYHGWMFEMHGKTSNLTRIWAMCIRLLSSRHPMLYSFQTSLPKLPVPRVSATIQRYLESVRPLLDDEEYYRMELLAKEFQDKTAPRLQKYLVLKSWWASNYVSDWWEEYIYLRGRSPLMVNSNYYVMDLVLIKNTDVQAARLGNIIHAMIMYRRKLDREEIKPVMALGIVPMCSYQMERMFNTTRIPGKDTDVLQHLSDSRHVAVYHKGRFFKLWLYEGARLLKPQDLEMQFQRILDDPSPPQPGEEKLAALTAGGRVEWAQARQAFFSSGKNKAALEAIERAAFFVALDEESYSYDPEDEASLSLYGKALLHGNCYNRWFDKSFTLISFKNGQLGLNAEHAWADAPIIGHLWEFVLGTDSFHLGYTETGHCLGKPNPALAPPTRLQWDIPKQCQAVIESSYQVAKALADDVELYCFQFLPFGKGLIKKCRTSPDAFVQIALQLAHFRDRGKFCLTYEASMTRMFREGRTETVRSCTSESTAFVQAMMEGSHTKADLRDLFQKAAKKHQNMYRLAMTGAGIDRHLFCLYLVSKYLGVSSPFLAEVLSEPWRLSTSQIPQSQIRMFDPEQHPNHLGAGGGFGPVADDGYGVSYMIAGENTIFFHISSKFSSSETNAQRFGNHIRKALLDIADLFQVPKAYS
# Experiment: Inhibition of CPT1B (unknown origin) in KB cells
# Format: cell-based
# Details: not given
row,Compound,IC50
1,O=C(O)C(=O)c1ccc(OCCOc2ccc3ccccc3c2)s1,16000 nM

# System: not listed separately
# Experiment: Inhibition of SPT (unknown origin)
# Parameters: species or system Homo sapiens
# Details: not given
row,Compound,IC50
1,CCCCCC[C@@H](O)CCCCCCCC[C@@H](O)[C@H](N)C(=O)O,224 nM
2,CCCCCC[C@@H](O)CCCCCC/C=C/[C@H](OC(C)=O)[C@@H](O)[C@H](O)[C@H](N)C(=O)O,100 nM
3,CCCCCC[C@@H](O)CCCCCC/C=C/[C@H](O)[C@@H](O)[C@H](O)[C@H](N)C(=O)O,20 nM
4,CC(C)CCCC(=O)CCCCCCC(=O)CCN(O)C(=O)[C@@H](N)CO,21 nM
5,CCCCCC[C@@H](O)CCCCCCCCC[C@H](CO)C(=O)O,24 nM

# Biological target: T5, Membrane-bound ghrelin O-acyltransferase MBOAT4 (Mus musculus, UniProt P0C7A3)
# T5 sequence (P0C7A3 whole entry): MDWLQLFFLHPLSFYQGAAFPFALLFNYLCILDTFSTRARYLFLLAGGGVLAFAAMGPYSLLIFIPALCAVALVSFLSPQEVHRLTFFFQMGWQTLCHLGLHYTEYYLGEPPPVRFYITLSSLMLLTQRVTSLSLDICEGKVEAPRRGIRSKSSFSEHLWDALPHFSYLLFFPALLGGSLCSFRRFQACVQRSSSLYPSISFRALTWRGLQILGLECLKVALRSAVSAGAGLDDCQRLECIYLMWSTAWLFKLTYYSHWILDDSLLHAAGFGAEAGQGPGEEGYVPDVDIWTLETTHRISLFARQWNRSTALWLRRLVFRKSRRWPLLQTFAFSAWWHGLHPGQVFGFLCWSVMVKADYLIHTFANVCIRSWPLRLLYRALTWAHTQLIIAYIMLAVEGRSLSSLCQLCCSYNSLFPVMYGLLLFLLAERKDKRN
# Experiment: Inhibition of N-terminal His-tagged mouse GOAT expressed in baculovirus infected insect cells
# Details: not given
row,Compound,IC50
1,CCCCCCCCN(C(C)=O)C(C(=O)NCc1ccccc1)c1ccc2cc(O)ccc2c1 (stereo unspecified),13100 nM
2,CCCCCCN(C(C)=O)C(C(=O)NCc1ccccc1)c1ccc2cc(O)ccc2c1 (stereo unspecified),7540 nM
3,CCCCCCCC(=O)NC[C@H](NC(=O)[C@H](CO)NC(=O)CN)C(=O)N[C@@H](Cc1ccccc1)C(=O)N[C@@H](CC(C)C)C(=O)N[C@@H](CO)C(=O)N1CCC[C@H]1C(=O)N[C@@H](CCC(=O)O)C(=O)N[C@@H](Cc1cnc[nH]1)C(=O)N[C@@H](CCC(N)=O)C(=O)N[C@@H](CCCCN)C(=O)N[C@@H](C)C(=O)N[C@@H](CCC(N)=O)C(=O)N[C@@H](CCC(N)=O)C(=O)N[C@@H](CCCNC(=N)N)C(=O)N[C@@H](CCCCN)C(=O)N[C@@H](CCC(=O)O)C(=O)N[C@@H](CO)C(=O)N[C@@H](CCCCN)C(=O)N[C@@H](CCCCN)C(=O)N1CCC[C@H]1C(=O)N1CCC[C@H]1C(=O)N[C@@H](C)C(=O)N[C@@H](CCCCN)C(=O)N[C@@H](CC(C)C)C(=O)N[C@@H](CCC(N)=O)C(=O)N1CCC[C@H]1C(=O)N[C@@H](CCCNC(=N)N)C(=O)O,200 nM
